Measured values reported in US5126336A, “Antibiotic C-3 catechol-substituted cephalosporin compounds, compositions and method of use thereof” (Bristol-Myers Squibb Company, priority 1990, dated 1992).
In brackets after ≈: the same amount, converted by molar mass. Read-outs that look alike come from different tables or passages of the source.

Assays:
[1] = tested on: Gp-Ia: Penicillin(PC)-sensitive S. aureus (5 strains); assay: MIC, two-fold serial agar dilution, Gp-Ia; assay type: cell-based; conditions: Staphylococcus aureus, read-out: Geometric mean of MIC
Protocol: (§1) Minimum inhibitory concentrations (MICs) of the present series of cephalosporins were determined against 32 strains of test organisms by two-fold serial agar dilution method in Mueller-Hinton agar. Geometric means of MICs were calculated against six groups of the test organisms which are classified as follows and summarized in Table 1.
Gp-Ia Penicillin(PC)-sensitive S. aureus (5 strains).

[2] = tested on: Gp-Ib: Penicillin(PC)-resistant S. aureus (5); assay: MIC, two-fold serial agar dilution, Gp-Ib; assay type: cell-based; conditions: Staphylococcus aureus, 5 strains, read-out: Geometric mean of MIC
Protocol: as §1
Gp-Ib Penicillin(PC)-resistant S. aureus (5).

[3] = tested on: Gn-Ia: Cephalothin(CET)-sensitive E. coli (2), Kl. pneumoniae (1) and Pr. mirabilis (2); assay: MIC, two-fold serial agar dilution, Gn-Ia; assay type: cell-based; conditions: 5 strains, read-out: Geometric mean of MIC
Protocol: as §1
Gn-Ia Cephalothin(CET)-sensitive E. coli (2), Kl.
pneumoniae (1) and Pr. mirabilis (2).

[4] = tested on: Gn-Ib: Cephalothin(CET)-resistant E. coli (3) and Kl. pneumoniae (2); assay: MIC, two-fold serial agar dilution, Gn-Ib; assay type: cell-based; conditions: Escherichia coli
Protocol: as §1
Gn-Ib Cephalothin(CET)-resistant E. coli (3) and Kl.

[5] = tested on: Gn-II: M.morganii (1), Ent. cloacae (2) and Ser. marcescens (2); assay: MIC, two-fold serial agar dilution, Gn-II; assay type: cell-based; conditions: for MIC: read-out: Geometric mean of MIC; for Geometric mean of MIC: second run
Protocol: as §1
Gn-II M.morganii (1), Ent. cloacae (2) and Ser.

[6] = tested on: Gn-III: Ps. aeruginosa (7); assay: MIC, two-fold serial agar dilution, Gn-III; assay type: cell-based; conditions: Pseudomonas aeruginosa, read-out: Geometric mean of MIC
Protocol: as §1
Gn-III Ps. aeruginosa (7).

E. coli Juhl A15119 = assay: MIC, agar dilution; assay type: cell-based; conditions: Escherichia coli, JUHLA15119, 18 h; E. coli Juhl (Table 3); read-out: MIC
Protocol: as §1
(§2) In vivo antibacterial activity was determined against three bacterial infections (S. aureus Smith, E. coli Juhl and P. aeruginosa A9843A) by intramuscular administration to mice just after the bacterial challenge. PD50 values are summarized in Table 3 in comparsion with the MIC values against the corresponding organisms.
(§3) Medium; MuellerHinton agar (pH = 7.2)
(§4) Incubation temperature: 32° C., 18 hr
(§5) Inoculum size; 10^6 cells/ml

P. aeruginosa A9843A [7] = assay: MIC, agar dilution; assay type: cell-based; conditions: Pseudomonas aeruginosa, A9843A, 18 h
Protocol: as §1, §2, §3, §4, §5

S. aureus Smith [8] = assay: MIC, agar dilution; assay type: cell-based; conditions: Staphylococcus aureus, 18 h; S. aureus Smith (Table 3); read-out: MIC
Protocol: as §1, §2, §3, §4, §5

S. aureus Smith [9] = assay: In vivo antibacterial activity, S. aureus Smith infection; conditions: Staphylococcus aureus, mice, im just after bacterial challenge, read-out: PD50
Protocol: as §2

E. coli Juhl = assay: In vivo antibacterial activity, E. coli Juhl infection; conditions: Escherichia coli, mice, im just after bacterial challenge, read-out: PD50
Protocol: as §2

P. aeruginosa A9843A [10] = assay: In vivo antibacterial activity, P. aeruginosa A9843A infection; design: species or system mice; conditions: Pseudomonas aeruginosa, A9843A, in Mus musculus, im, read-out: PD50
Protocol: as §2

[11] = read-out: Geometric mean of MIC, Gn-Ib, 5 strains, Mueller-Hinton agar
[12] = Gn-III, 7 strains, Mueller-Hinton agar
[13] = read-out: Geometric mean of MIC, second run, Gn-Ib, 5 strains

Structure (SMILES)	MIC ([1]; Mueller-Hinton agar)	MIC ([2]; Mueller-Hinton agar)	MIC ([3]; Mueller-Hinton agar)	MIC [4, 11]	MIC [5]	MIC [6, 12]	MIC (E. coli Juhl A15119)	MIC (P. aeruginosa A9843A [7])	MIC (S. aureus Smith [8])	ED50 (S. aureus Smith [9])	ED50 (E. coli Juhl)	ED50 (P. aeruginosa A9843A [10])	MIC ([5]; Gn-II, 5 strains, Mueller-Hinton agar)	MIC ([1]; second run)	MIC ([2]; second run)	MIC ([3]; second run)	MIC [4, 13]	Geometric mean of MIC ([5]; Gn-II, 5 strains)	MIC [6]	MIC ([6]; second run, Gn-III, 7 strains)
CC(C)(O/N=C(\C(=O)NC1C(=O)N2C(C(=O)[O-])=C(/C=C\C[N+]3(C)Cc4cc(O)c(O)cc4C3)CS[C@H]12)c1csc(N)n1)C(=O)O (stereo partly drawn) [Compound Ib, 7-[(Z)-2-(2-aminothiazol-4-yl)-2-(1-carboxy-1-methylethoxy-imino)acetamido]-3-[(Z)-3-(5,6-dihydroxy-2-methyl-2-isoindolinio)-1-propen-1-yl]-3-cephem-4-carboxylate]	25 µg/mL (≈ 38 µM)	50 µg/mL (≈ 75.9 µM)	0.46 µg/mL (≈ 0.698 µM)	0.26 µg/mL (≈ 0.395 µM)	0.91 µg/mL (≈ 1.38 µM)	1.4 µg/mL (≈ 2.13 µM)	0.8 µg/mL (≈ 1.21 µM)	1.6 µg/mL (≈ 2.43 µM)	25 µg/mL (≈ 38 µM)	3.8 mg/kg	0.1 mg/kg	2 mg/kg	–	–	–	–	–	–	–	–
CO/N=C(\C(=O)NC1C(=O)N2C(C(=O)[O-])=C(/C=C\C[N+]3(C)Cc4cc(O)c(O)cc4C3)CS[C@H]12)c1csc(N)n1 (stereo partly drawn) [Compound Ie, 7-[(Z)-2-(2-amino-thiazol-4-yl)-2-methoxyiminoacetamido]-3-[(Z)-3-(5,6-dihydroxy-2-methyl-2-isoindolinio)-1-propen-1-yl]-3-cephem-4-carboxylate]	4.7 µg/mL (≈ 8.01 µM)	6.3 µg/mL (≈ 10.7 µM)	0.13 µg/mL (≈ 0.222 µM)	0.26 µg/mL (≈ 0.443 µM)	–	2.9 µg/mL (≈ 4.94 µM)	0.2 µg/mL (≈ 0.341 µM)	3.1 µg/mL (≈ 5.28 µM)	6.3 µg/mL (≈ 10.7 µM)	0.72 mg/kg	0.025 mg/kg	9.9 mg/kg	0.91 µg/mL (≈ 1.55 µM)	–	–	–	–	–	–	–
CC(C)(O/N=C(\C(=O)NC1C(=O)N2C(C(=O)O)=C(/C=C/Cn3ccc4cc(=O)c(O)cc-4c3)CS[C@H]12)c1csc(N)n1)C(=O)O (stereo partly drawn) [Iv, 7-[(Z)-2-(2-Aminothiazol-4-yl)-2-(1-carboxy-1-methylethoxyimino)acetamido]-3-[(E)-3-(2,6-dihydro-7-hydroxy-6-oxo-isoquinolin-2-yl)-1-propen-1-yl]-3-cephem-4-carboxylic acid]	12.5 µg/mL (≈ 19.1 µM)	16 µg/mL (≈ 24.4 µM)	0.017 µg/mL (≈ 0.026 µM)	0.0072 µg/mL (≈ 0.011 µM)	0.076 µg/mL (≈ 0.116 µM)	–	0.1 µg/mL (≈ 0.153 µM)	0.1 µg/mL (≈ 0.153 µM)	12.5 µg/mL (≈ 19.1 µM)	0.98 mg/kg	0.019 mg/kg	0.17 mg/kg	–	16 µg/mL (≈ 24.4 µM)	16 µg/mL (≈ 24.4 µM)	0.0094 µg/mL (≈ 0.0144 µM)	0.0083 µg/mL (≈ 0.0127 µM)	0.076 µg/mL	0.11 µg/mL (≈ 0.168 µM)	0.15 µg/mL (≈ 0.229 µM)
CC(C)(O/N=C(\C(=O)NC1C(=O)N2C(C(=O)[O-])=C(/C=C/C[N+]3(C)Cc4cc(O)c(O)cc4C3)CSC12)c1csc(N)n1)C(=O)O (stereo not drawn) [Compound Ia, 7-[(Z)-2-(2-Aminothiazol-4-yl)-2-(1-carboxy-1-methylethoxy-imino)acetamido]-3-[(E)-3-(5,6-dihydroxy-2-methyl-2-iso-indolinio)-1-propen-1-yl]-3-cephem-4-carboxylate]	12.5 µg/mL (≈ 19 µM)	12.5 µg/mL (≈ 19 µM)	0.2 µg/mL (≈ 0.304 µM)	0.23 µg/mL (≈ 0.349 µM)	0.69 µg/mL (≈ 1.05 µM)	1.3 µg/mL (≈ 1.97 µM)	0.8 µg/mL (≈ 1.21 µM)	1.6 µg/mL (≈ 2.43 µM)	12.5 µg/mL (≈ 19 µM)	0.86 mg/kg	0.008 mg/kg	2 mg/kg	–	13 µg/mL (≈ 19.7 µM)	13 µg/mL (≈ 19.7 µM)	0.23 µg/mL (≈ 0.349 µM)	0.23 µg/mL (≈ 0.349 µM)	0.69 µg/mL	–	0.33 µg/mL (≈ 0.501 µM)
